Assay results published in patent US6592845B2, “Estrogens for treating ALS” (Parker Hughes Institute, priority 1999, dated 2003).

System: Heterozygous transgenic mice carrying the human SOD-1 (G93A)
Test: Murine model of familial ALS (FALS): monitoring for limb paralysis and death, life-table analysis
Format: in vivo
Settings: 16 mg/kg twice a day, everyday except weekends
Description: (§1) Heterozygous transgenic mice carrying the human SOD-1 (G93A) were obtained from Jackson Laboratory (Bar Harbor, Me., USA). These mice were monitored everyday for limbic paralysis and death. Onset of FALS was defined as the first day upon which limbic paralysis was observed. Life-table analysis was performed using Statview, Abacus Concepts, Inc. (Berkeley, Calif.).
There are currently several transgenic animal models of ALS (Borchelt et al., 1998, Transgenic mouse models of Alzheimer's disease and amyotrophic lateral sclerosis, Brain Pathology, 8: 735-757). The G93A HuSOD1 is a well established animal model of familial ALS which has been described previously in detail (Dal Canto M C, Gurney Me., 1994, The development of central nervous system pathology in a murine transgenic model of human amyotrophic lateral sclerosis. Am J. Pathol 145: 1-9; Gurney et al., 1994, Motor neuron degeneration in mice that express a human Cu,Zn superoxide dismutase mutation, Science 264:1772-1775). Levels of SOD1 activity are elevated to about five times above that of endogenous SOD 1 in these mice. In this model, the mice develop hind limb weakness, a coarse coat, poor grooming, and reduced stride length at about 3 months of age. By five months of age, a majority of the mice are moribund.
as §1, with “USA). The mice were treated either with vehicle or genistein at 16 mg/kg twice a day, everyday, except on weekends. The” for “USA). These”, “for limb” for “for limbic”, “Calif.). […]” for “Calif.).”
The ability of 4-(4′-hydroxylphenyl)-amino-6,7-dimethoxyquinazoline (P131) and 2,4,4′-trihydroxy deoxybenzoin (DDE-17) to protect against neural degeneration in familial ALS was evaluated using the methods described above for Example 2. […]

[1] = male FALS mice, compared with vehicle-treated males

In the case of `O=c1c(-c2ccc(O)cc2)coc2cc(O)cc(O)c12` [Genistein, genistein], the “disease onset (first day upon which limbic paralysis was observed)” value (female FALS mice, compared with untreated (vehicle) females) was “did not exhibit a delay”, the “disease onset (first day upon which limbic paralysis was observed)” value [1] was “delayed” and the mortality [1] was “delayed”.
